Experimental data: patent US20080286338A1, “Drug delivery system with scleral lens” (Boston Foundation for Sight, priority 2007, published 2008)
Where two headings read alike, the source gives them in different places.

Columns and labels:
[1] = test system: corneal neovascularization; assay: Off-label topical AVASTIN for corneal neovascularization using the scleral lens drug delivery system; format: in vivo
Text: This study using AVASTIN® off-label, topically, to treat corneal neovascularization was repeated using the scleral lens drug delivery system. […] This therapeutic effect was achieved without BAK. Instead, the expanded pre-corneal tear film of the scleral lens drug delivery system provided adequate bioavailability of the drug without exposing the cornea to BAK.

[2] = test system: corneal neovascularization; details: solution of 1% AVASTIN and 0.01% BAK, one drop, four times per day for at least thirty days, topical drops; cited from earlier work

In the case of bevacizumab [AVASTIN®], the “therapeutic effect on corneal neovascularization” value ([1]; one drop of 1% AVASTIN added to expanded pre-corneal tear film of artificial tears in scleral lens twice per day, without BAK, by thirty days, continued benefit over subsequent sixty days) is given as “achieved a therapeutic effect by thirty days with continued benefit over the subsequent sixty days”, the “regression of corneal neovascularization (clinical photos, FIG. 5)” value ([1]; scleral lens drug delivery system) is given as “regression of corneal neovascularization” and the “therapeutic effect on corneal neovascularization” value [2] is given as “Therapeutic effect was reported”.
